Experimental data from patent US20060246131A1, “Use of metformin to counteract weight gain associated with psychotropic medications” (priority 2005, published 2006).

Tests used:
[1] = cited from earlier work
[2] = person treated with GEODON; cited from earlier work
[3] = metformin 500 mg twice daily together with aripiprazole, over a 3-month period
[4] = Case study: mood and behavior of a patient with Bipolar Affective Disorder NOS on aripiprazole; type: in vivo, human; conditions: person, BPAD NOS; aripiprazole 5 mg once daily; 2 weeks later
From the text: A person presented with behavioral problems.
The time of onset for childhood BPAD is frequently during the later years of the latency period, and typically includes rapid cycling, with disturbances in sleep, behavioral issues including aggression, grandiosity, and hyper-sexuality. At the time of evaluation, it was difficult to know if the patient also had co-occurring ADHD, combined subtype and Oppositional Defiant Disorder. Bipolar Affective Disorder, NOS appeared to be the more parsimonious diagnosis.
Additionally they were asked to keep a mood chart.

SMILES: CN(C)C(=N)NC(=N)N.Cl [Metformin hydrochloride, N,N-dimethylimidocarbonimidic diamide hydrochloride]
- pH of a 1% aqueous solution [1]: 6.68

SMILES: O=C1Cc2cc(CCN3CCN(c4nsc5ccccc45)CC3)c(Cl)cc2N1 [GEODON]
- weight gain [2]: significant weight gain

SMILES: CN(C)C(=N)N=C(N)N [metformin, N,N-dimethylimidocarbonimidic diamide]
- Body Mass Index (BMI) after treatment ([3]; BMI from 24.9): 22.6
- decrease in body weight [3]: seven

SMILES: O=C1CCc2ccc(OCCCCN3CCN(c4cccc(Cl)c4Cl)CC3)cc2N1 [aripiprazole, 7-[4-[4-(2,3-dichlorophenyl)-1-piperazinyl]butoxy]-3,4-dihydrocarbostyril]
- behavioral outcome on return visit [4]: much more settled, with fewer outbursts, and no behavioral concerns
